One assay addresses DYRK1A (Homo sapiens, UniProt Q13627). The experiment in a line: Cellular DYRK1 autophosphorylation assay in U2-OS cells. In kind it is cell-based. The arrangement: full-length, wild-type human DYRK1A (NM_001396) with an HA tag; expressed in transfected cells; host or cells: human U2-OS osteosarcoma cells, transient transfection of a pcDNA3.1 plasmid. Particulars: U2-OS cells transfected with HA-tagged human DYRK1A, 5 hours exposure; read-out: IC50 (μM) P-Ser520-Dyrk1A -Cell assay. On the procedure: On day 2, cells were exposed to a range of concentrations of the test compounds of the invention for 5 hours. […] The relative levels of phospho-Ser520-DYRK1A were assayed using either western blotting or the Mesoscale ELISA platform. For analysis by western blot, lysates were diluted into Laemmli sample buffer (Bio-Rad) containing 5% v/v β-mercaptoethanol, heated for 5 min at 95° C., and resolved on Tris-glycine gels or NuPage Bis-Tris gels (Novex; Invitrogen). Biotinylated molecular weight standards (Cell Signaling Technology) were included in all gels. Proteins were transferred to nitrocellulose membranes (Hybond, ECL; Amersham), which were blocked in Tris-buffered saline/0.1% tween 20 (TBST) containing 5% milk, and probed at 4° C. overnight with anti-phospho-Ser520-DYRK1A antibody (Eurogentec SE6974-75; 0.23 μg/ml in 5% BSA) or anti DYRK1A antibody (Abnova H00001859; 0.5 μg/ml in 5% milk). Peroxidase-conjugated secondary antibodies were diluted into 5% milk and applied to membranes for 1 h at 20° C. Chemiluminescence detection was performed using the ECL plus western blotting detection kit (Amersham) and was recorded on ECL plus hyperfilm (Amersham). Blots were scanned using the Bio-Rad GS-800 calibrated densitometer and quantitative analysis of western blots was performed using TotalLab software (Amersham). IC50 values for inhibition of phospho-Ser520-DYRK1A were calculated from dose-response curves plotting the ratio between phospho-Ser520-DYRK1A and total DYRK1A signals at each concentration. […] Anti-phospho-Ser520-DYRK1A antibody (Eurogentec SE6974-75; […]) and anti DYRK1A antibody (Abnova H00001859; 3 μg/ml) was then added for 1 hour at RT, followed by addition of Sulfa-TAG anti-rabbit detection antibody (ref MSD R32AB; 1 μg/ml) and Sulfa-TAG anti-mouse detection antibody (ref MSD R32-AC-1; 1 μg/ml). After a further 1 hour, Read Buffer was added and plates were read on the Sector Imager 2400 (Mesoscale). IC50 values for inhibition of phospho-Ser520-DYRK1A were calculated from dose-response curves.

Assay [1] has as its target T1, His-TEV-DYRK1A Kinase domain (aa127-485) (Homo sapiens, UniProt Q13627).
T1 construct: His-TEV-DYRK1A Kinase domain (aa127-485); His tag (N); TEV protease cleavage site (N)
Put plainly: Kinase ADP assay (ADP Hunter), DYRK1A kinase domain. Type of assay: biochemical. Particulars: 20 μM ATP. As to the method: The enzyme reaction was conducted in assay buffer (pH 7.4), containing 15 mM Hepes; 20 mM NaCl; 1 mM EGTA; 10 mM MgCl2; 0.02% Tween20 and 0.1 mg/ml Bovine-y-globulin. Test compounds of the invention were added in reaction buffer in a range of concentrations for 10 minutes at 30° C. in the presence of 20 nM DYRK1A enzyme, 40 μM peptide substrate and 20 μM ATP. Detection reagents (DiscoveRx 90-0083), ADP Hunter Plus Reagent A and then ADP Hunter Plus Reagent B were added. After a following 20 minutes incubation at 30° C., ADP Hunter Plus Stop Solution was added. The fluorescence intensity was measured at 590 nm.

By IC50 is commonly meant the midpoint of a concentration-inhibition curve. Consider `Cc1nc2ccc(-c3cc(N)nc(N)c3)nc2n1[C@H]1C[C@H]1Cc1ccccc1` (single isomer, unassigned) [Example 137], for which the IC50 at DYRK1A amounted to 0.197 µM; in assay [1] it was 0.048 µM.
In the case of `Cc1nc2ccc(-c3cc(N)nc(N)c3)nc2n1[C@H]1C[C@@H]1Cc1ccccc1` (single isomer, unassigned) [Example 138], the IC50 worked out at 0.1 µM at DYRK1A and 0.052 µM in assay [1].
For `Cc1nc2ccc(-c3cc(N)nc(N)c3)nc2n1[C@@H]1C[C@@H]1Cc1ccccc1` (single isomer, unassigned) [Example 140] the same measures were 0.024 µM and 0.007 µM.
Consider `COc1ccccc1O[C@@H](C)Cn1c(C)nc2ccc(-c3cc(N)nc(N)c3)nc21` (single isomer, unassigned) [Example 141], for which the figures for the IC50 (on DYRK1A; in assay [1]) were 0.191 µM and 0.01 µM, respectively.
For `Cc1nc2ccc(-c3cc(N)nc(N)c3)nc2n1C[C@H](C)Oc1cccc(Cl)n1` (single isomer, unassigned) [Example 176] the same measures were 0.223 µM and 0.093 µM.
For `Cc1nc2ccc(-c3cc(N)nc(N)c3)nc2n1C[C@@H](C)Oc1ccc(F)cn1` (single isomer, unassigned) [Example 179] the same measures were 0.237 µM and 0.023 µM.
With `Cc1nc2ccc(-c3cc(N)nc(N)c3)nc2n1C[C@H](C)Oc1ncccc1Br` (single isomer, unassigned) [Example 182], the IC50 on DYRK1A was 0.175 µM; in assay [1], 0.026 µM.
For `Cc1nc2ccc(-c3cc(N)nc(N)c3)nc2n1C[C@H](C)Oc1cccc(F)n1` (single isomer, unassigned) [Example 188] the same measures were 0.181 µM and 0.065 µM.
As to `Cc1nc2ccc(-c3cc(N)nc(N)c3)nc2n1C[C@H](C)Oc1ncccc1Cl` (single isomer, unassigned) [Example 190], the IC50 at DYRK1A is 0.148 µM; in assay [1], 0.032 µM.
For `Cc1nc2ccc(-c3cc(N)nc(N)c3)nc2n1CCc1ccc2c(c1)OCCO2` [Example 77, 4-{3-[2-(2,3-dihydro-1,4-benzodioxin-6-yl)ethyl]-2-methyl-3H-imidazo[4,5-b]pyridin-5-yl}pyridine-2,6-diamine] the same measures were 0.077 µM and 0.008 µM.
With `Cc1nc2ccc(-c3cc(N)nc(N)c3)nc2n1CCc1ccccc1` [Example 83, 4-[2-methyl-3-(2-phenylethyl)-3H-imidazo[4,5-b]pyridin-5-yl]pyridine-2,6-diamine], the IC50 on DYRK1A is 0.037 µM; in assay [1], 0.007 µM.
For `Cc1nc2ccc(-c3cc(N)nc(N)c3)nc2n1Cc1ccnc(F)c1` [Example 84, 4-{3-[(2-fluoropyridin-4-yl)methyl]-2-methyl-3H-imidazo[4,5-b]pyridin-5-yl}pyridine-2,6-diamine] the same measures were 0.113 µM and 0.019 µM.
For `Cc1nc2ccc(-c3cc(N)nc(N)c3)nc2n1CCC1CCCO1` (stereo not drawn) [Example 85, 4-{2-methyl-3-[2-(tetrahydrofuran-2-yl)ethyl]-3H-imidazo[4,5-b]pyridin-5-yl}pyridine-2,6-diamine] the same measures were 0.143 µM and 0.016 µM.
Consider `Cc1nc2ccc(-c3cc(N)nc(N)c3)nc2n1CC1CC1C` (stereo not drawn) [Example 86, 4-{2-methyl-3-[(2-methylcyclopropyl)methyl]-3H-imidazo[4,5-b]pyridin-5-yl}pyridine-2,6-diamine], for which the results for the IC50 (on DYRK1A; in assay [1]) were 0.151 µM and 0.019 µM, respectively.
On the same counts, the results for `CCC1(Cn2c(C)nc3ccc(-c4cc(N)nc(N)c4)nc32)CC1` [Example 88, 4-{3-[(1-ethylcyclopropyl)methyl]-2-methyl-3H-imidazo[4,5-b]pyridin-5-yl}pyridine-2,6-diamine] are 0.103 µM and 0.012 µM.
On the same counts, the results for `COc1cccc2c1CCC(n1c(C)nc3ccc(-c4cc(N)nc(N)c4)nc31)C2` (stereo not drawn) [Example 93, 4-[3-(5-methoxy-1,2,3,4-tetrahydronaphthalen-2-yl)-2-methyl-3H-imidazo[4,5-b]pyridin-5-yl]pyridine-2,6-diamine] are 0.107 µM and 0.007 µM.
Consider `Cc1nc2ccc(-c3cc(N)nc(N)c3)nc2n1CC1CC1(C)C` (stereo not drawn) [Example 99, 4-{3-[(2,2-dimethylcyclopropyl)methyl]-2-methyl-3H-imidazo[4,5-b]pyridin-5-yl}pyridine-2,6-diamine], for which the IC50 at DYRK1A was 0.104 µM; in assay [1] it was 0.016 µM.
On the same counts, the results for `Cc1nc2ccc(-c3cc(N)nc(N)c3)nc2n1CC(C)(C)Oc1ccccc1` [Example 116, 4-[2-methyl-3-(2-methyl-2-phenoxypropyl)-3H-imidazo[4,5-b]pyridin-5-yl]pyridine-2,6-diamine] are 0.267 µM and 0.056 µM.
For `Cc1cccc(O[C@@H](C)Cn2c(C)nc3ccc(-c4cc(N)nc(N)c4)nc32)c1` [Example 127, 4-{2-methyl-3-[(2S)-2-(3-methylphenoxy)propyl]0.3H-imidazo[4,5-b]pyridin-5-yl}pyridine-2,6-diamine] the same measures were 0.089 µM and 0.015 µM.
For `Cc1nc2ccc(-c3cc(N)nc(N)c3)nc2n1CCCOc1ccccc1` [Example 143, 4-[2-methyl-3-(3-phenoxypropyl)-3H-imidazo[4,5-b]pyridin-5-yl]pyridine-2,6-diamine] the same measures were 0.037 µM and 0.013 µM.
Take `Cc1nc2ccc(-c3cc(N)nc(N)c3)nc2n1CCOc1ccc(Cl)cn1` [Example 164, 4-(3-{2-[(5-chloropyridin-2-yl)oxy]ethyl}-2-methyl-3H-imidazo[4,5-b]pyridin-5-yl)pyridine-2,6-diamine]: the figures for the IC50 (at DYRK1A; in assay [1]) were 0.152 µM and 0.032 µM, respectively.
On the same counts, the results for `Cc1nc2ccc(-c3cc(N)nc(N)c3)nc2n1CCOc1ncccc1Cl` [Example 166, 4-(3-{2-[(3-chloropyridin-2-yl)oxy]ethyl}-2-methyl-3H-imidazo[4,5-b]pyridin-5-yl)pyridine-2,6-diamine] are 0.25 µM and 0.085 µM.
For the compound `Cc1nc2ccc(-c3cc(N)nc(N)c3)nc2n1CCOc1cccc(F)n1` [Example 167, 4-(3-{2-[(6-fluoropyridin-2-yl)oxy]ethyl}-2-methyl-3H-imidazo[4,5-b]pyridin-5-yl)pyridine-2,6-diamine], the IC50 (at DYRK1A; in assay [1]) was 0.011 µM in each case.
In the case of `Cc1nc2ccc(-c3cc(N)nc(N)c3)nc2n1CCOc1ccc(Br)cn1` [Example 170, 4-(3-{2-[(5-bromopyridin-2-yl)oxy]ethyl}-2-methyl-3H-imidazo[4,5-b]pyridin-5-yl)pyridine-2,6-diamine], the IC50 on DYRK1A is 0.131 µM; in assay [1], 0.035 µM.
Take `Cc1nc2ccc(-c3cc(N)nc(N)c3)nc2n1CCOc1ccc(F)cn1` [Example 171, 4-(3-{2-[(5-fluoropyridin-2-yl)oxy]ethyl}-2-methyl-3H-imidazo[4,5-b]pyridin-5-yl)pyridine-2,6-diamine]: the IC50 at DYRK1A was determined as 0.109 µM; in assay [1] it was 0.018 µM.
As to `Cc1nc2ccc(-c3cc(N)nc(N)c3)nc2n1CCOc1cccc(CF)n1` [Example 172, 4-[3-(2-{[6-(fluoromethyl)pyridin-2-yl]oxy}ethyl)-2-methyl-3H-imidazo[4,5-b]pyridin-5-yl]pyridine-2,6-diamine], the results for the IC50 (on DYRK1A; in assay [1]) were 0.092 µM and 0.007 µM, respectively.
For `Cc1nc2ccc(-c3cc(N)nc(N)c3)nc2n1CCOc1cccc(C(F)F)n1` [Example 173, 4-[3-(2-{[6-(difluoromethyl)pyridin-2-yl]oxy}ethyl)-2-methyl-3H-imidazo[4,5-b]pyridin-5-yl]pyridine-2,6-diamine] the same measures were 0.017 µM and 0.007 µM.

Values taken from patent US20180273528A1 (LES LABORATOIRES SERVIER, priority 2015, published 2018).
